In one assay the target is T1, HDAC 6 (Homo sapiens, UniProt Q9UBN7).
T1 sequence (Q9UBN7 1-1215): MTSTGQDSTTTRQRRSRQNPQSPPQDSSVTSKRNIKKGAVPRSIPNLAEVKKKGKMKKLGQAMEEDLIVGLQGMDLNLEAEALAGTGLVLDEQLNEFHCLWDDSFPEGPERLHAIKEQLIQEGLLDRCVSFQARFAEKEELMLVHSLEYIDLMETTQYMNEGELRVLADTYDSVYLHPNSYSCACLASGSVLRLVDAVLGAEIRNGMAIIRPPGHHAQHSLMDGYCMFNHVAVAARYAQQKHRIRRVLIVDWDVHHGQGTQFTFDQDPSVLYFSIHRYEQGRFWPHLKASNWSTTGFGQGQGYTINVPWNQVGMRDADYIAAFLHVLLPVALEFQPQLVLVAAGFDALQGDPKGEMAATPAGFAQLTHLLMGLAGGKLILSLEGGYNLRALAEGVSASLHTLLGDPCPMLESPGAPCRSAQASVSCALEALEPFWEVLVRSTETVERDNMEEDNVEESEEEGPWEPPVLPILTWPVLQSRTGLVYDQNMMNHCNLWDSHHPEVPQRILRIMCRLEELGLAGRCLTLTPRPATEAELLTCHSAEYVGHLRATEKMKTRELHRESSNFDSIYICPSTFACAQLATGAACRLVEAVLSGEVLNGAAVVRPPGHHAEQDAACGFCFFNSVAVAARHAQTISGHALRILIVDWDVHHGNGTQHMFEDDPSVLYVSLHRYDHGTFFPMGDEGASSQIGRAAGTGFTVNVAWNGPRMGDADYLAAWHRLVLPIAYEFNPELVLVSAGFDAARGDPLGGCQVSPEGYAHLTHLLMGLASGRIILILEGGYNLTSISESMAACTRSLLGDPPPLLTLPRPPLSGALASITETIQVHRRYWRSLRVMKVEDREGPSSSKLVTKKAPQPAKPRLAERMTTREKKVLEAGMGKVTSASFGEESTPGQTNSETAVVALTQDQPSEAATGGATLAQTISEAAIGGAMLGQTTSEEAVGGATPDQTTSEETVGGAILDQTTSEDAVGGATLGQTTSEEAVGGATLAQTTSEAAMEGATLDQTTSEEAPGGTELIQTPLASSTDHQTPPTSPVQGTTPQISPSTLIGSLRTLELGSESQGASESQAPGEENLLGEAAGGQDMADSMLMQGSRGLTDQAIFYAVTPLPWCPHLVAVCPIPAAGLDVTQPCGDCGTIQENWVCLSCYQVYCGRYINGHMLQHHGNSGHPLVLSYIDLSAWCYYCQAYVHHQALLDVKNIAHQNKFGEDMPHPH
As to the kind of experiment: Test of HDAC activities, HDAC6 (fluorimetric). The assay is classed as biochemical. Further details: purchased Calbiochem 382180. The settings on record: samples at 0.1, 1, 10, 100, 1000 nM; 37° C. 60 minutes; fluorescence Ex 390, Em 460; read-out: HDAC inhibitory activities, HDAC6. Here is the method: (§1) The HDAC inhibitory activities of test materials were measured using the HDAC1 Fluorimetric Drug Discovery Assay Kit (Enzolifesciences: BML-AK511) and HDAC6 human recombinant (Calbiochem: 382180). In the HDAC1 assay, the samples were treated with concentrations of 100, 1000, and 10000 nM, and in the HDAC6 assay, the samples were treated with concentrations of 0.1, 1, 10, 100, and 1000 nM. After the treatment of the samples, the samples were reacted at 37° C. for 60 minutes, treated with a developer, and then reacted at 37° C. for 30 minutes. Then, the fluorescence intensity (Ex 390, Em 460) was measured using the FlexStation 3 (Molecular device).

A further assay addresses HDAC1 (Homo sapiens, UniProt Q13547). Put plainly: Test of HDAC activities, HDAC1 Fluorimetric Drug Discovery Assay Kit. Type of assay: biochemical. Further details: purchased Enzolifesciences BML-AK511. To be noted: samples at 100, 1000, 10000 nM; 37° C. 60 minutes; fluorescence Ex 390, Em 460; read-out: HDAC inhibitory activities, HDAC1. Here is the method: as §1

Sequence of HDAC1 (Q13547 whole entry): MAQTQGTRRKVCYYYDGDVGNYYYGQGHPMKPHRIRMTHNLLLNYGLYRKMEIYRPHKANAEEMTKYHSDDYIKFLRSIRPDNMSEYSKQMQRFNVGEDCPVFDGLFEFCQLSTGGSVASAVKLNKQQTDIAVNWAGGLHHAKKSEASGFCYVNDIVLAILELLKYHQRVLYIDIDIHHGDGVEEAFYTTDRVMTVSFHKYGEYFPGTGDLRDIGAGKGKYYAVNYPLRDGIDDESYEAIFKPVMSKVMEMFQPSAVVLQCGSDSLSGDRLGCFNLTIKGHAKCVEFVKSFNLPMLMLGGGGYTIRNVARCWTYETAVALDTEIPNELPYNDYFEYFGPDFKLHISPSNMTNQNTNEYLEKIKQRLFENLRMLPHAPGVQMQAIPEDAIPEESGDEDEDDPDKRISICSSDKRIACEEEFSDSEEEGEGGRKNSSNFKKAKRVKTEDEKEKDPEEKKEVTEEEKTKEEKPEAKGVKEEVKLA

For `Cn1ncc2cc(-c3cccc(N(Cc4ccc(C(=O)NO)cc4)C(=O)N4CCOCC4)c3)ccc21` [Compound 252, N-(4-(hydroxycarbamoyl)benzyl)-N-(3-(1-methyl-1H-indazol-5-yl)phenyl)morpholine-4-carboxamide], the IC50 at HDAC 6 amounted to 6 nM; on HDAC1 it was 151 nM. Regarding `CN1CCN(C(=O)N(Cc2ccc(C(=O)NO)cc2)c2cccc(Br)c2)CC1` [Compound 256, N-(3-bromophenyl)-N-(4-(hydroxycarbamoyl)benzyl)-4-methylpiperazine-1-carboxamide], the IC50 at HDAC 6 was found to be 1 nM; on HDAC1, 148 nM.

Turning to `Cn1ncc2cc(-c3cccc(N(Cc4ccc(C(=O)NO)cc4)C(=O)N4CCCCC4)c3)ccc21` [Compound 260, N-(4-(hydroxycarbamoyl)benzyl)-N-(3-(1-methyl-1H-indazol-5-yl)phenyl)piperidine-1-carboxamide], the IC50 at HDAC 6 was 7 nM; at HDAC1, 551 nM. The like results for `O=C(NO)c1ccc(CN(C(=O)N2CCOCC2)c2cccc(-c3ccc4cc[nH]c4c3)c2)cc1` [Compound 261, N-(3-(1H-indol-6-yl)phenyl)-N-(4-(hydroxycarbamoyl)benzyl)morpholine-4-carboxamide] were, in that order, 2 nM and 72 nM. Taken in the same sequence, the figures for `O=C(NO)c1ccc(CN(C(=O)N2CCOCC2)c2cccc(-c3cccnc3)c2)cc1` [Compound 262, N-(4-(hydroxycarbamoyl)benzyl)-N-(3-(pyridin-3-yl)phenyl)morpholine-4-carboxamide] were 1 nM and 164 nM.

As for `O=C(NO)c1ccc(CN(C(=O)N2CCOCC2)c2cccc(-c3ccc4[nH]ccc4c3)c2)cc1` [Compound 263, N-(3-(1H-indol-5-yl)phenyl)-N-(4-(hydroxycarbamoyl)benzyl)morpholine-4-carboxamide], the IC50 on HDAC 6 came out at 2 nM; at HDAC1, 75 nM. Taken in the same sequence, the figures for `O=C(NO)c1ccc(CN(C(=O)N2CCOCC2)c2ccccc2)cc1` [Compound 279, N-(4-(hydroxycarbamoyl)benzyl)-N-phenylmorpholine-4-carboxamide] were 1 nM and 292 nM. For `O=C(NO)c1ccc(CN(C(=O)N2CCOCC2)c2ccccn2)cc1` [Compound 280, N-(4-(hydroxycarbamoyl)benzyl)-N-(pyridin-2-yl)morpholine-4-carboxamide], the IC50 on HDAC 6 was 5 nM; on HDAC1, 1260 nM. Taken in the same sequence, the figures for `O=C(NO)c1ccc(CN(C(=O)N2CCOCC2)c2cccnc2)cc1` [Compound 281, N-(4-(hydroxycarbamoyl)benzyl)-N-(pyridin-3-yl)morpholine-4-carboxamide] were 27 nM and 3910 nM.

On to `O=C(NO)c1ccc(CN(C(=O)N2CCN(Cc3ccccc3)CC2)c2ncccn2)cc1` [Compound 309, 4-benzyl-N-(4-(hydroxycarbamoyl)benzyl)-N-(pyrimidin-2-yl)piperazine-1-carboxamide], for which the IC50 on HDAC 6 worked out at 3 nM. Turning to `O=C(NO)c1ccc(CN(C(=O)N2CCC(O)(c3ccccc3)CC2)c2ncccn2)cc1` [Compound 311, 4-hydroxy-N-(4-(hydroxycarbamoyl)benzyl)-4-phenyl-N-(pyrimidin-2-yl)piperidine-1-carboxamide], the IC50 is 13 nM at HDAC 6 and 22900 nM at HDAC1. As for `O=C(NO)c1ccc(CN(C(=O)N2CCOCC2)c2ncccn2)cc1` [Compound 312, N-(4-(hydroxycarbamoyl)benzyl)-N-(pyrimidin-2-yl)morpholine-4-carboxamide], the IC50 at HDAC 6 is 7 nM; at HDAC1, 22700 nM. Taken in the same sequence, the figures for `CC1CN(C(=O)N(Cc2ccc(C(=O)NO)cc2)c2ncccn2)CC(C)O1` (stereo not shown) [Compound 313, N-(4-(hydroxycarbamoyl)benzyl)-2,6-dimethyl-N-(pyrimidin-2-yl)morpholine-4-carboxamide] were 7 nM and 35900 nM. Turning to `O=C(NO)c1ccc(CN(C(=O)N2CC=C(c3ccccc3)CC2)c2ccccn2)cc1` [Compound 352, N-(4-(hydroxycarbamoyl)benzyl)-4-phenyl-N-(pyridin-2-yl)-5,6-dihydropyridine-1(2H)-carboxamide], the values for the IC50 on HDAC 6 and on HDAC1 were 7 nM and 4620 nM, respectively. For the compound `CN1CCN(C(=O)N(Cc2ccc(C(=O)NO)cc2)c2ccccn2)CC1` [Compound 353, N-(4-(hydroxycarbamoyl)benzyl)-4-methyl-N-(pyridin-2-yl)piperazine-1-carboxamide], the IC50 on HDAC 6 is 10 nM; on HDAC1 it was 4530 nM. As for `CCN1CCN(C(=O)N(Cc2ccc(C(=O)NO)cc2)c2ccccn2)CC1` [Compound 354, 4-ethyl-N-(4-(hydroxycarbamoyl)benzyl)-N-(pyridin-2-yl)piperazine-1-carboxamide], the figures for the IC50 at HDAC 6 and on HDAC1 were 9 nM and 3910 nM, respectively. Take `O=C(NO)c1ccc(CN(C(=O)N2CCN(Cc3ccccc3)CC2)c2ccccn2)cc1` [Compound 355, 4-benzyl-N-(4-(hydroxycarbamoyl)benzyl)-N-(pyridin-2-yl)piperazine-1-carboxamide]: the IC50 turned out to be 5 nM at HDAC 6 and 2340 nM at HDAC1. As for `COc1ccccc1N1CCN(C(=O)N(Cc2ccc(C(=O)NO)cc2)c2ccccn2)CC1` [Compound 356, N-(4-(hydroxycarbamoyl)benzyl)-4-(2-methoxyphenyl)-N-(pyridin-2-yl)piperazine-1-carboxamide], the IC50 was found to be 4 nM on HDAC 6 and 3820 nM on HDAC1. As for `O=C(NO)c1ccc(CN(C(=O)N2CCN(c3ccc(F)cc3)CC2)c2ccccn2)cc1` [Compound 357, 4-(4-fluorophenyl)-N-(4-(hydroxycarbamoyl)benzyl)-N-(pyridin-2-yl)piperazine-1-carboxamide], the IC50 came to 3 nM on HDAC 6 and 3280 nM at HDAC1. In the case of `O=C(NO)c1ccc(CN(C(=O)N2CCCC2)c2ccccn2)cc1` [Compound 358, N-(4-(hydroxycarbamoyl)benzyl)-N-(pyridin-2-yl)pyrrolidine-1-carboxamide], the IC50 on HDAC 6 was found to be 9 nM; at HDAC1 it was 4170 nM. The like results for `O=C(NO)c1ccc(CN(C(=O)N2CCOCC2)c2nc(-c3ccccc3)cs2)cc1` [Compound 370, N-(4-(hydroxycarbamoyl)benzyl)-N-(4-phenylthiazol-2-yl)morpholine-4-carboxamide] were, in that order, 1 nM and 710 nM. Taken in the same sequence, the figures for `O=C(NO)c1ccc(CN(C(=O)N2CCOCC2)c2nc(-c3ccc(Cl)cc3)cs2)cc1` [Compound 371, N-(4-(4-chlorophenyl)thiazol-2-yl)-N-(4-(hydroxycarbamoyl)benzyl)morpholine-4-carboxamide] were 20 nM and 1330 nM. Regarding `CN1CCCN(C(=O)N(Cc2ccc(C(=O)NO)cc2)c2ccccn2)CC1` [Compound 376, N-(4-(hydroxycarbamoyl)benzyl)-4-methyl-N-(pyridin-2-yl)-1,4-diazepane-1-carboxamide], the IC50 on HDAC 6 came out at 4 nM. In the case of `O=C(NO)c1ccc(CN(C(=O)N2CCC2)c2ccccn2)cc1` [Compound 377, N-(4-(hydroxycarbamoyl)benzyl)-N-(pyridin-2-yl)azetidine-1-carboxamide], at HDAC 6, the IC50 stood at 5 nM. Same read-out and setting: for `Cc1ccc(N2CCN(C(=O)N(Cc3ccc(C(=O)NO)cc3)c3ccccn3)CC2)cc1C` [Compound 379, 4-(3,4-dimethylphenyl)-N-(4-(hydroxycarbamoyl)benzyl)-N-(pyridin-2-yl)piperazine-1-carboxamide] the value was 4 nM.

Values taken from US9878986B2, “Compounds for selective histone deacetylase inhibitors, and pharmaceutical composition comprising the same” (CHONG KUN DANG PHARMACEUTICAL CORP., priority 2013, dated 2018).
